The record followed here is patent US20230013364A1, “COMBINATION THERAPIES COMPRISING ANTIBODY MOLECULES TO PD-1” (Novartis AG, priority 2015, published 2023).

Assay [1] has as its system PD-L1 (CD274) mRNA in Hs.746.T tumor. Kind of assay: PD-L1 mRNA in Hs.746.T tumor xenograft. It counts as in vivo, human. The note with it: Hs.746.T tumor (gastric cancer, cMET amplification & mutation) xenograft; FIG. 16. The procedure: (§1) TaqMan RT PCR assays were developed to detect changes of expression levels of PD-L1 (CD274) in cell lines and xenograft tumors. mRNA was isolated from frozen cell pellets or tumor fragments using the Qiagen RNeasy Mini kit. Isolated RNA was frozen at −80° C. RNA quality was checked and RNA was quantified using a 2100 Agilent Bioanalyzer following the protocol for the Agilent RNA 6000 Nano Kit. cDNA was prepared using a High Capacity RNA—to cDNA Kit (Applied Biosystems).
(§2) Real-time PCR reactions were carried out in 20 μl total volume, including 10 μl of Universal PCR master mix (Applied Biosystems), 1 μl of human PD-L1 (CD274) probe/primer set (Applied Biosystems), and 8 μl of cDNA. Each sample was run in triplicate. The amount of cDNA produced from 25-50 ng of RNA in the reverse transcription reaction was used in each PCR reaction. Due to difference in mRNA levels between PD-L1 and GAPDH, the two real-time PCR reactions were done in separate tubes using same amount of cDNA. The real-time PCR reaction was run on the C1000 Thermal Cycle (BioRad) with the cycle program as follows: a 10 minute incubation at 95° C. followed by 40 cycles of 95° C. for 15 seconds and 60° C. for 1 minute. After the reaction was complete, the PD-L1 average Ct was normalized relative to each Ct value from the GAPDH reference reaction. Each normalized logarithmic value was then converted into a linear value.
In general terms: A xenograft is tissue or cells of one species grown in another, often human tumour cells in immunodeficient mice.

Assay [2] concerns PD-L1 (CD274) surface expression in EBC-1 cells. The assay is described as follows: Flow cytometry of PD-L1 surface expression in EBC-1 cells in vitro. It is filed as cell-based, human. As to conditions: EBC-1 cells (NSCLC with cMET amplification); 10, 100, 1000 nM; 24, 48, 72 hours; vs DMSO; FIG. 15. On the procedure: PD-L1 (CD274) expression was analyzed in cancer cell lines treated with Compound A17. Cells were obtained from ATCC and cultured in vitro following ATCC directions. The cell lines used were previously characterized by the Cancer Cell Line Encyclopedia Project (http://www.broadinstitute.org/ccle/home).
Cells plated in six-well culture plates were treated with the Compound A17 at different concentrations (10 nM, 100 nM, and 1000 nM) for 24, 48 and 72 hours. Equal amount of vehicle (DMSO) was used as a control. Cells were washed with PBS and then harvested using a cell scraper.
For each reaction, 0.5-1×10^6 cells were stained with 20 μL of anti-human monoclonal PD-L1— PE antibody, clone M1H1 (BD) for 30-60 minutes at 4° C. Cells were washed twice and data was acquired using a Canto II with FACSDiva software (BD Bioscience). Data analysis was performed using FlowJo software (Tree Star). Mean fluorescence intensity (MFI) was determined by gating on single cells. Unstained cells were used as a gating control.
On the technique in general: A flow cytometer gives signals particle by particle.

In assay [3] the test system is PD-L1 (CD274) mRNA in UKE-1 tumors. Kind of assay: PD-L1 mRNA in UKE-1 tumor xenograft model. It is filed as in vivo, human. As to conditions: tumor xenograft model bearing UKE-1 (MPN line with JAK2V617F mutation); FIG. 20. The procedure: as §1, §2
Assay [4] concerns PD-L1 (CD274) mRNA in H3122 cells. The assay is described as follows: TaqMan RT PCR of PD-L1 mRNA in H3122 cells in vitro. The note with it: H3122 (NSCLC with ALK translocation) in vitro; FIG. 17. It counts as cell-based, human. On the procedure: as §1, §2
A general note: Quantitative PCR measures a nucleic acid by following its amplification.

Assay [5] concerns PD-L1 (CD274) mRNA in LOXIMV1 tumors. Kind of assay: PD-L1 mRNA in LOXIMV1 tumor xenograft model. It counts as in vivo, human. As to conditions: tumor xenograft model bearing LOXIMV1 (BRAF mutant melanoma); FIG. 18. The procedure:
as §1, §2

The subject of assay [6] is PD-L1 (CD274) mRNA in HEYA8 tumors. Kind of assay: PD-L1 mRNA in HEYA8 tumor xenograft model. It counts as in vivo, human. The note with it: tumor xenograft model bearing HEYA8 (KRAF mutant ovarian cancer); FIG. 19. The procedure: as §1, §2
In another assay the test system is CD8+ T cells. Kind of assay: Proliferation of CD8+ T cells activated with CMV peptides. It counts as cell-based. As to conditions: percentages of CD8+ cells that passed through at least n cell divisions (n=2, 4, 6).
In assay [7] the test system is interferon gamma (IFN-γ) expression. It counts as cell-based.

Several values for one entry are separate records, joined by “and”; a condition that tells them apart may be missing. Equal values may be shown once. Entries after “also recorded” stand apart in the source; their conditions may differ. Read-outs that look alike come from different tables or passages of the source.

For the molecule `CNC(=O)c1ccc(-c2cnc3ncc(Cc4ccc5ncccc5c4)n3n2)cc1F` [Compound A17, 2-fluoro-N-methyl-4-(7-(quinolin-6-ylmethyl)imidazo[1,2-b][1,2,4]triazin-2-yl)benzamide], in assay [1], the “PD-L1 expression (mRNA)” value is “Inhibition”. The “surface expression of PD-L1 (flow cytometry)” value in assay [2] is listed as “Significant inhibition; also recorded: significant downregulation”.
On to `N#CC[C@H](C1CCCC1)n1cc(-c2ncnc3[nH]ccc23)cn1` [Compound A18, Ruxolitinib Phosphate], for which the “PD-L1 mRNA” value in assay [3] is listed as “Significant inhibition; also recorded: Downregulation”.
On to `Cc1cc(Nc2ncc(Cl)c(Nc3ccccc3S(=O)(=O)C(C)C)n2)c(OC(C)C)cc1C1CCNCC1` [Compound A23, ceritinib], for which the “PD-L1 mRNA” value in assay [4] is listed as “Significant inhibition”.
As to `COC(=O)N[C@@H](C)CNc1nccc(-c2cn(C(C)C)nc2-c2cc(Cl)cc(NS(C)(=O)=O)c2F)n1` [Compound A29, Encorafenib], the “PD-L1 mRNA” value in assay [5] is “Significant inhibition; also recorded: Downregulation”.
Consider `Cn1cnc2c(F)c(Nc3ccc(Br)cc3F)c(C(=O)NOCCO)cc21` [Compound A34, Binimetinib], for which the “PD-L1 mRNA” value in assay [6] is “Significant inhibition; also recorded: Downregulation”.

B1: BAP049: murine anti-PD-1 monoclonal antibody (antibody, V domains shown)
VH: QVQLQQSGSELVRPGASVKLSCKASGYTFTTYWMHWVRQRPGQGLEWIGNIYPGTGGSNFDEKFKNRTSLTVDTSSTTAYMHLASLTSEDSAVYYCTRWTTGTGAYWGQGTLVTVSA
VL: DIVMTQSPSSLTVTAGEKVTMSCKSSQSLLDSGNQKNFLTWYQQKPGQPPKLLIFWASTRESGVPDRFTGSGSVTDFTLTISSVQAEDLAVYYCQNDYSYPCTFGGGTKLEIK
Regarding B1, the “proliferation of CD8+ T cells activated with CMV peptides” value in the assay on CD8+ T cells is reported as “increase proliferation”. Besides, the “fold increase in IFN-γ expression” value in assay [7] was 2.3±1.1 fold and 2.8±0.8 fold; in assay [7] (cells stimulated with Staphylococcal enterotoxin B (SEB) (3 pg/mL)), 2.5±2.0 fold.
